In experiment [1] the target is Serine/threonine-protein kinase SIK1 (Homo sapiens) (UniProt P57059). Put plainly: Selectivity interaction (KinomeScan (DiscoverX)) EUB0000229b SIK1. The settings on record: at 10 µM.
The target in experiment [2] is 5'-AMP-activated protein kinase catalytic subunit alpha-1 (Homo sapiens, UniProt Q13131). Put plainly: Selectivity interaction (ActivX KiNativ screen (kinase selectivity in THP-1 cell lysates)) EUB0000639a PRKAA1. To be noted: lysate, at 0.04 µM. It is filed as subcellular.
The target of experiment [3] is Mitogen-activated protein kinase kinase kinase 11 (Homo sapiens) (UniProt Q16584). Put plainly: Selectivity interaction (ActivX KiNativ screen (kinase selectivity in THP-1 cell lysates)) EUB0000639a MAP3K11. It is filed as subcellular. To be noted: lysate, at 0.04 µM.
For experiment [4], the target named is Vasopressin V1a receptor (Homo sapiens) (UniProt P37288). Put plainly: Selectivity interaction (Panel of kinases, GPCRs, ion channels and transporters (enzymatic assay)) EUB0000223bCl AVPR1A.
Experiment [5] deals with T1, Myosin-IIIb (Homo sapiens) (UniProt Q8WXR4).
T1 sequence (whole entry): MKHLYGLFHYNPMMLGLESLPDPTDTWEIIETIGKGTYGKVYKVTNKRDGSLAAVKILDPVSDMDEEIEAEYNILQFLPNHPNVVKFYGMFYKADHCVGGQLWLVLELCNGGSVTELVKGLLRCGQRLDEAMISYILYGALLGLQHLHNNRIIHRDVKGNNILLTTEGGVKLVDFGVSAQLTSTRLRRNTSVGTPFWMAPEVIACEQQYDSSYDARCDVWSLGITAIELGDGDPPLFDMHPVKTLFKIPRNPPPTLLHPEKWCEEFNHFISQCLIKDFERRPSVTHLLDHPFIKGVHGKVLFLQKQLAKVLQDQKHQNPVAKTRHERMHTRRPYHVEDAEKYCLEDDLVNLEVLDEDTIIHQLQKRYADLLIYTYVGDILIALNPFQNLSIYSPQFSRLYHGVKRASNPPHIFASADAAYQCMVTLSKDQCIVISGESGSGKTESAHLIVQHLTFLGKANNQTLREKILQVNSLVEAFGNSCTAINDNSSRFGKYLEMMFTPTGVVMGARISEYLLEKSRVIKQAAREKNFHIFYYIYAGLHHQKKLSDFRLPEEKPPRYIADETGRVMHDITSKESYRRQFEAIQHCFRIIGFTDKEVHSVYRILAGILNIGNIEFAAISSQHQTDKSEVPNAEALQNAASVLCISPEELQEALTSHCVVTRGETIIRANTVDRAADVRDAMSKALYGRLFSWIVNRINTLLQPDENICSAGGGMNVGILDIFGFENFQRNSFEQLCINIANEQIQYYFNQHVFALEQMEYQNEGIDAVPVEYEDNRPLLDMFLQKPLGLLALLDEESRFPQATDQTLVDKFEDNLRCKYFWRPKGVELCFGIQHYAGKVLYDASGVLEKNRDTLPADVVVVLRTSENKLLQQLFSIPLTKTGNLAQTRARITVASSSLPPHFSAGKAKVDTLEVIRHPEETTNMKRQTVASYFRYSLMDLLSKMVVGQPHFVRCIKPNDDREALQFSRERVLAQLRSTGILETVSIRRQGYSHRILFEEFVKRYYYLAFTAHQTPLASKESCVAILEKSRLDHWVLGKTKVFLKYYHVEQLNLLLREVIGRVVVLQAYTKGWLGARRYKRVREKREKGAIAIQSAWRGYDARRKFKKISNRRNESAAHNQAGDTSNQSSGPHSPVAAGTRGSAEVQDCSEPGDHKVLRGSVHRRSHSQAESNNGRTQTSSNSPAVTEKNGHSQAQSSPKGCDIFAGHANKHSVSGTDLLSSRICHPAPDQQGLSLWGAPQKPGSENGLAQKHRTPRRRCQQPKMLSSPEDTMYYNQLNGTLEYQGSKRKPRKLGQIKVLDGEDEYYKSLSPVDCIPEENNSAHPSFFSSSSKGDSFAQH
Put plainly: Selectivity interaction (KinomeScan (DiscoverX)) EUB0000045b MYO3B.

For experiment [6], the target named is Tyrosine-protein kinase BTK (Homo sapiens, UniProt Q06187). The experiment can be described thus: Selectivity interaction (KinomeScan (DiscoverX)) EUB0000618a BTK. To be noted: at 10 µM.
Experiment [7] concerns the target T2, Serine/threonine-protein kinase ICK (Homo sapiens) (UniProt Q9UPZ9).
T2 sequence (whole entry): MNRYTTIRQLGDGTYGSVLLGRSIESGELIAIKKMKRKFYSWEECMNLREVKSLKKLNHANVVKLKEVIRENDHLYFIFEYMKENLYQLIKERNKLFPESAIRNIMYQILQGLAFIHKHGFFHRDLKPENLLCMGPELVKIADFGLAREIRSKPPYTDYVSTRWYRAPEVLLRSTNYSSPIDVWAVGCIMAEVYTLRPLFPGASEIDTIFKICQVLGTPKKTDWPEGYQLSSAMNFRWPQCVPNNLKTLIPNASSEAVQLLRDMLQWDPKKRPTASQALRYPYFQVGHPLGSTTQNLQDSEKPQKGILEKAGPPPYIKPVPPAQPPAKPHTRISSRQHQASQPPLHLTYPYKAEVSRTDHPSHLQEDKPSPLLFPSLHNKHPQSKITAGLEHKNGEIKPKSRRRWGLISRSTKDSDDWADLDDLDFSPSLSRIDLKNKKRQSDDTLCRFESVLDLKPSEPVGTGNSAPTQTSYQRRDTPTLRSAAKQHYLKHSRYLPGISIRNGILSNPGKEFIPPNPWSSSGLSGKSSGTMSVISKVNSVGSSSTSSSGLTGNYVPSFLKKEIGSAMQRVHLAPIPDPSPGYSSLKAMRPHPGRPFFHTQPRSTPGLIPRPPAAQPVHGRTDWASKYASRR
Put plainly: Selectivity interaction (KinomeScan (DiscoverX)) EUB0000618a ICK. To be noted: at 10 µM.

The target of experiment [8] is Serine/threonine-protein kinase pim-2 (Homo sapiens, UniProt Q9P1W9). Put plainly: Selectivity interaction (KinomeScan (DiscoverX)) EUB0000618a PIM2. The settings on record: at 10 µM.
Chain of Serine/threonine-protein kinase pim-2 (Q9P1W9 whole entry, looked up): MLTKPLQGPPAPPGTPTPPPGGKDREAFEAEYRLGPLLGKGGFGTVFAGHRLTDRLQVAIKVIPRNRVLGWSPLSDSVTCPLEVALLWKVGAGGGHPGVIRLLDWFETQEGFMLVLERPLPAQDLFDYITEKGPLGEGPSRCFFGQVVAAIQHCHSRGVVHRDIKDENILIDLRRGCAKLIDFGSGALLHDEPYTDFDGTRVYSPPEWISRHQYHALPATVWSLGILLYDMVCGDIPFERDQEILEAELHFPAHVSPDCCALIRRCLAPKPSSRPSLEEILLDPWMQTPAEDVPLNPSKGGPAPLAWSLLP

Chain of Mitogen-activated protein kinase kinase kinase 11 (Homo sapiens) (Q16584 whole entry, looked up): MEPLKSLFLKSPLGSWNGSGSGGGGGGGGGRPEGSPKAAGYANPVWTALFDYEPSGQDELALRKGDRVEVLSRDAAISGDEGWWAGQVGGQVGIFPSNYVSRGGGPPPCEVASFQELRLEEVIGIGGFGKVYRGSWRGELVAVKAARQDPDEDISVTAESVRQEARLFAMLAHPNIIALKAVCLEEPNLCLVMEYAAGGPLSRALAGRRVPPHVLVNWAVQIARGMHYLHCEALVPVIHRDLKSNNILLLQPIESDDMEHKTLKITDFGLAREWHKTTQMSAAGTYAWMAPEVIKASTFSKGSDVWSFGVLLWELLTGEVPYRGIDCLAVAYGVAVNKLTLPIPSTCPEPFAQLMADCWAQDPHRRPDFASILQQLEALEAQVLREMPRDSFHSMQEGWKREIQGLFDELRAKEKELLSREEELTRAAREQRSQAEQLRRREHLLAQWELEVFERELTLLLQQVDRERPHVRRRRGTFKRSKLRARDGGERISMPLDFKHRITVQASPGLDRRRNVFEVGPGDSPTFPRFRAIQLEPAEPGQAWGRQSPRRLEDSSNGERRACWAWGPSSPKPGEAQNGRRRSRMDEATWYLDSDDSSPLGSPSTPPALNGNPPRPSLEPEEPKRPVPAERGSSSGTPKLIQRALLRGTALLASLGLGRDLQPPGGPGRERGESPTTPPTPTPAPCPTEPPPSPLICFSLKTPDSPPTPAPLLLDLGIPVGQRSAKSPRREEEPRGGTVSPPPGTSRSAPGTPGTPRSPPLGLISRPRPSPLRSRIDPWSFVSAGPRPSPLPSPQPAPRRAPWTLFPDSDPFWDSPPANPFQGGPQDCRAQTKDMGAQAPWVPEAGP
Chain of 5'-AMP-activated protein kinase catalytic subunit alpha-1 (Q13131 whole entry, looked up): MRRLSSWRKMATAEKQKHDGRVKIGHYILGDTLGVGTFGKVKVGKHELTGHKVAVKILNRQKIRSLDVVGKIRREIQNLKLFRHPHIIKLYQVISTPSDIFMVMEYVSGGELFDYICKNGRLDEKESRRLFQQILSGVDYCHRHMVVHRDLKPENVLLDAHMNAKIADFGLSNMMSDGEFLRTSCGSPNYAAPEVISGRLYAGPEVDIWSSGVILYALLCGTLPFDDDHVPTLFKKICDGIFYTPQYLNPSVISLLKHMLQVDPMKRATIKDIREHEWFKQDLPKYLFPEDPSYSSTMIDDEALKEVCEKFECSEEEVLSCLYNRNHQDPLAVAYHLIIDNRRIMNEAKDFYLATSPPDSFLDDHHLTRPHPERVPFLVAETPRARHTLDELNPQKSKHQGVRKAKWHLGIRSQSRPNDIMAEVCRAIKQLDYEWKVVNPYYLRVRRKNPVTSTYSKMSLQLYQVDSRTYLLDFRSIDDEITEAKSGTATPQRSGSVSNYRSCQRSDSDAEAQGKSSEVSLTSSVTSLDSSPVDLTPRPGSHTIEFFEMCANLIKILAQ
Chain of Serine/threonine-protein kinase SIK1 (Homo sapiens) (P57059 whole entry): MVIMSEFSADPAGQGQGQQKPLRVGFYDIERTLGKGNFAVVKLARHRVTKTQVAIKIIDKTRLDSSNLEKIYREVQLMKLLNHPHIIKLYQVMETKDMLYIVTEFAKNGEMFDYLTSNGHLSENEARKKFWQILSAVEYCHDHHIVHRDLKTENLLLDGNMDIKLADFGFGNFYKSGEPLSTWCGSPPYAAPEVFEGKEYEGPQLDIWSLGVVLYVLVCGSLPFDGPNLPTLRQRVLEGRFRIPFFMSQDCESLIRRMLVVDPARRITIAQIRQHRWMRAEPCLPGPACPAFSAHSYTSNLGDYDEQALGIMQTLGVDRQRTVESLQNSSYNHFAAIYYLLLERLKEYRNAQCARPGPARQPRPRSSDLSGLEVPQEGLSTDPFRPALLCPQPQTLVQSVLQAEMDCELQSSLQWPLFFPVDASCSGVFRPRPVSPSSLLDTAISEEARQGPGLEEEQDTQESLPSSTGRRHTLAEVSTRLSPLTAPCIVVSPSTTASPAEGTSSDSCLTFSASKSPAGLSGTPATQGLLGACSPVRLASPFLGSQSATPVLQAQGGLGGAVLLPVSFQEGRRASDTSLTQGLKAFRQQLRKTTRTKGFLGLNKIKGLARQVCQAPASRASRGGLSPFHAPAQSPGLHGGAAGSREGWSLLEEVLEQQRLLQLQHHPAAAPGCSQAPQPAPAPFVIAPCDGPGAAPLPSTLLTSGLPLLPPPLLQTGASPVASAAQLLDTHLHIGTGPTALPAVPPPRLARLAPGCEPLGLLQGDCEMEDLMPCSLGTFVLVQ
Chain of Tyrosine-protein kinase BTK (Q06187 whole entry): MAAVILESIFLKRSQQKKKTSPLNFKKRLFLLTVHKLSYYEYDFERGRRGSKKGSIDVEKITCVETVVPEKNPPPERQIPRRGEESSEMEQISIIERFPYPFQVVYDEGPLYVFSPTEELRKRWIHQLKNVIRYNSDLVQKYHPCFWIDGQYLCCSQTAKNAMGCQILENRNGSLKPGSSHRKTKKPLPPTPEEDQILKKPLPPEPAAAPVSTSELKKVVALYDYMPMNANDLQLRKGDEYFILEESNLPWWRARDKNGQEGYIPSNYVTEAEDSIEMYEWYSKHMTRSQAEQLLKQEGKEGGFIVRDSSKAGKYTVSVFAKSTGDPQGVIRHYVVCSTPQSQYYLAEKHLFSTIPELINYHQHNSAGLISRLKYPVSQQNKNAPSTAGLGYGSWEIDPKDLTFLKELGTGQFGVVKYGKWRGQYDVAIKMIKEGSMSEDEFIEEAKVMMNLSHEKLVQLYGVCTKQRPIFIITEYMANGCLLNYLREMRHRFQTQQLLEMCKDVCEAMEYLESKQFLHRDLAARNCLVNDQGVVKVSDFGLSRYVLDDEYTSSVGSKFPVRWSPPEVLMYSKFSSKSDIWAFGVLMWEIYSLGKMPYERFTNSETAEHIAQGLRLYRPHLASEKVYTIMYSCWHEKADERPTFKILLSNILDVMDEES
Chain of Vasopressin V1a receptor (Homo sapiens) (P37288 whole entry, looked up): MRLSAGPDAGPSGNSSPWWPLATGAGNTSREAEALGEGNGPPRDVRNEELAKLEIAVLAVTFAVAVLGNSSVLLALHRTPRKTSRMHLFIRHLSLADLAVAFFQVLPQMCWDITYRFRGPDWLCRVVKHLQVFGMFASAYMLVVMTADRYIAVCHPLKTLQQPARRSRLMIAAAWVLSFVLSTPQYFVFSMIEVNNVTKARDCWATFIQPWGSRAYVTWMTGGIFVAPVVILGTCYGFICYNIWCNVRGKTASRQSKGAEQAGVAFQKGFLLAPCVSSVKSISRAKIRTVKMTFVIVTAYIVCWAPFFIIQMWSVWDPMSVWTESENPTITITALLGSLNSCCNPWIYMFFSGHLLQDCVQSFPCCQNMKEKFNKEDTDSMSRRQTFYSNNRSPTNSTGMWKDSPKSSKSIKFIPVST

Compound `COc1cc(N(C)c2ccnc3ccc(C(F)(F)F)cc23)cc(OC)c1OC` gave a % binding in experiment [1] of 96%.

For `CC[C@@H]1[C@H](F)C(=O)N[C@@H]1COc1nccc2cc(C(N)=O)c(OC)cc12` [ZIMLOVISERTIB], the results for the % of inhibition in experiment [2] and in experiment [3] were -11.5% and -8.9%, respectively.

In experiment [4], `COc1cc(C(=O)N2CC[C@@H](O)[C@@H](N)C2)cc2nc(-c3cc4ccccc4n3CC3CC3)n(C)c12` registered a pXC50 of 4.6 M.

Take `C=CC(=O)Nc1cc(-n2c(=O)ccc3cnc4ccc(-c5ccc(NS(C)(=O)=O)cc5)cc4c32)ccc1C`: the % of control came to 92% in experiment [5] (at 1 µM) and 100% in experiment [5] (at 10 µM).

Take `O[C@H]1CC[C@H](Nc2ncc3nc(Nc4c(F)cc(F)cc4F)n([C@H]4CCOC4)c3n2)CC1`: the % of control in experiment [6], in experiment [7] and in experiment [8] was 100% in each case.

The record behind these values is ChEMBL document CHEMBL5465560, “Selectivity Literature for EUbOPEN Chemogenomic Library” (2024).
